# Data reported in patent publication US20100029657A1, “Bridged, Bicyclic Heterocyclic or Spiro Bicyclic Heterocyclic Derivatives of Pyrazolo[1, 5-A]Pyrimidines, Methods for Preparation and Uses Thereof” (Wyeth, priority 2008, published 2010).
# Target: T1, Flag/GST-tagged recombinant human B-Raf (Homo sapiens, UniProt P15056)
# T1 construct: Flag; GST; made in house; host or cells: Sf9 insect cells (B-Raf); E. coli (MEK1-GST)
# Assay: B-Raf kinase assay (phosphorylation of GST-MEK1, phospho-MEK1 antibody/Europium detection)
# Format: biochemical
# Details: B-Raf IC50 Data for compounds of Formula A; read-out: Mean IC50
# Outline: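 Active B-Raf (0.2 nM) phosphorylates GST-MEK1 in 20 mM MOPS pH 7.2 buffer with DTT, vanadate and 0.01% Triton X-100. The Mg/ATP cocktail (200 μM ATP, 40 mM MgCl2) is added, then incubation runs 45 min at RT. Product is captured on anti-GST plates and detected by anti-phospho-MEK1 plus Europium-anti-rabbit fluorescence, giving % inhibition per concentration.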
# T1 sequence (P15056 whole entry): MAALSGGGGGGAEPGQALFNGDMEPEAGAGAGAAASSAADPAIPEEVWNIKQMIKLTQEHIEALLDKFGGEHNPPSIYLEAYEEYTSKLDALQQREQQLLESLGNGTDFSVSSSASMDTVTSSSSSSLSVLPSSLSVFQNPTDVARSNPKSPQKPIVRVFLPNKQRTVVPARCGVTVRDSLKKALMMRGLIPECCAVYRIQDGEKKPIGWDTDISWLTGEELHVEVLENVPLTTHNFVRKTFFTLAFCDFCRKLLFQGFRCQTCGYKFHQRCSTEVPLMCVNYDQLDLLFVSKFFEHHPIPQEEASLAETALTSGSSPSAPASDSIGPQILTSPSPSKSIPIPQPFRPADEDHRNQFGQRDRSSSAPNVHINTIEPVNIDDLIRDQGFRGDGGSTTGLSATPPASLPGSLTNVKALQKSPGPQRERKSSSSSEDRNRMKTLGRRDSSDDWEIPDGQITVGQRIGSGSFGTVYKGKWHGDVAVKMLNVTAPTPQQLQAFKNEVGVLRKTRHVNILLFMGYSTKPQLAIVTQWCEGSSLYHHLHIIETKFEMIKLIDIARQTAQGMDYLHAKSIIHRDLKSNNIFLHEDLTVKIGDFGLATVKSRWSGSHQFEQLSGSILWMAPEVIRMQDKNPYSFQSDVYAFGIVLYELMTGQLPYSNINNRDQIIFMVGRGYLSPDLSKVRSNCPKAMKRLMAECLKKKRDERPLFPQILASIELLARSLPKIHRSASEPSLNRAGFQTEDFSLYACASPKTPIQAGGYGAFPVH
row,IC50 [nM],Structure (SMILES)
1,2.7,"Fc1cc(-c2ccnc3c(-c4cccc5[nH]ncc45)c(-c4ccncc4)nn23)cc(F)c1N1C[C@@H]2C[C@H]1CN2 [Example 161, 7-{4-[(1S,4S)-2,5-diazabicyclo[2.2.1]hept-2-yl]-3,5-difluorophenyl}-3-(1H-indazol-4-yl)-2-pyridin-4-ylpyrazolo[1,5-a]pyrimidine]"
2,0.5,"Fc1c(-c2ccnc3c(-c4cccc5[nH]ncc45)c(-c4ccncc4)nn23)ccc(N2C[C@@H]3C[C@H]2CN3)c1F [Example 162, 7-{4-[(1S,4S)-2,5-diazabicyclo[2.2.1]hept-2-yl]-2,3-difluorophenyl}-3-(1H-indazol-4-yl)-2-pyridin-4-ylpyrazolo[1,5-a]pyrimidine]"
3,< 0.3,"Fc1cc(N2C[C@@H]3C[C@H]2CN3)c(F)cc1-c1ccnc2c(-c3cccc4[nH]ncc34)c(-c3ccncc3)nn12 [Example 163, 7-{4-[(1S,4S)-2,5-diazabicyclo[2.2.1]hept-2-yl]-2,5-difluorophenyl}-3-(1H-indazol-4-yl)-2-pyridin-4-ylpyrazolo[1,5-a]pyrimidine]"
4,9.6,"CN1C[C@@H]2C[C@H]1CN2c1c(F)cc(-c2ccnc3c(-c4cccc5[nH]ncc45)c(-c4ccncc4)nn23)cc1F [Example 164, 7-{3,5-difluoro-4-[(1S,4S)-5-methyl-2,5-diazabicyclo[2.2.1]hept-2-yl]phenyl}-3-(1H-indazol-4-yl)-2-pyridin-4-ylpyrazolo[1,5-a]pyrimidine]"
5,0.6,"CN1C[C@@H]2C[C@H]1CN2c1ccc(-c2ccnc3c(-c4cccc5[nH]ncc45)c(-c4ccncc4)nn23)c(F)c1F [Example 165, 7-{2,3-difluoro-4-[(1S,4S)-5-methyl-2,5-diazabicyclo[2.2.1]hept-2-yl]phenyl}-3-(1H-indazol-4-yl)-2-pyridin-4-ylpyrazolo[1,5-a]pyrimidine]"
6,0.4,"CN1C[C@@H]2C[C@H]1CN2c1cc(F)c(-c2ccnc3c(-c4cccc5[nH]ncc45)c(-c4ccncc4)nn23)cc1F [Example 166, 7-{2,5-difluoro-4-[(1S,4S)-5-methyl-2,5-diazabicyclo[2.2.1]hept-2-yl]phenyl}-3-(1H-indazol-4-yl)-2-pyridin-4-ylpyrazolo[1,5-a]pyrimidine]"
7,< 0.3,"CCN1C[C@@H]2C[C@H]1CN2c1cc(F)c(-c2ccnc3c(-c4cccc5[nH]ncc45)c(-c4ccncc4)nn23)c(F)c1 [Example 167, 7-{4-[(1S,4S)-5-ethyl-2,5-diazabicyclo[2.2.1]hept-2-yl]-2,6-difluorophenyl}-3-(1H-indazol-4-yl)-2-pyridin-4-ylpyrazolo[1,5-a]pyrimidine]"
8,< 0.3,"CC(C)CN1C[C@@H]2C[C@H]1CN2c1cc(F)c(-c2ccnc3c(-c4cccc5[nH]ncc45)c(-c4ccncc4)nn23)c(F)c1 [Example 168, 7-{2,6-difluoro-4-[(1S,4S)-5-isobutyl-2,5-diazabicyclo[2.2.1]hept-2-yl]phenyl}-3-(1H-indazol-4-yl)-2-pyridin-4-ylpyrazolo[1,5-a]pyrimidine]"
9,< 0.3,"CC(C)N1C[C@@H]2C[C@H]1CN2c1cc(F)c(-c2ccnc3c(-c4cccc5[nH]ncc45)c(-c4ccncc4)nn23)c(F)c1 [Example 169, 7-{2,6-difluoro-4-[(1S,4S)-5-isopropyl-2,5-diazabicyclo[2.2.1]hept-2-yl]phenyl}-3-(1H-indazol-4-yl)-2-pyridin-4-ylpyrazolo[1,5-a]pyrimidine]"
10,< 0.3,"Fc1cc(N2C[C@@H]3C[C@H]2CN3C2CCC2)cc(F)c1-c1ccnc2c(-c3cccc4[nH]ncc34)c(-c3ccncc3)nn12 [Example 170, 7-{4-[(1S,4S)-5-cyclobutyl-2,5-diazabicyclo[2.2.1]hept-2-yl]-2,6-difluorophenyl}-3-(1H-indazol-4-yl)-2-pyridin-4-ylpyrazolo[1,5-a]pyrimidine]"
11,0.3,"Fc1cc(N2C[C@@H]3CC[C@H]2CN3)ccc1-c1ccnc2c(-c3cccc4[nH]ncc34)c(-c3ccncc3)nn12 [Example 172, 7-{4-[(1S,4S)-2,5-diazabicyclo[2.2.2]oct-2-yl]-2-fluorophenyl}-3-(1H-indazol-4-yl)-2-pyridin-4-ylpyrazolo[1,5-a]pyrimidine]"
12,0.4,"CN1C[C@@H]2CC[C@H]1CN2c1ccc(-c2ccnc3c(-c4cccc5[nH]ncc45)c(-c4ccncc4)nn23)c(F)c1 [Example 173, 7-{2-fluoro-4-[(1S,4S)-5-methyl-2,5-diazabicyclo[2.2.2]oct-2-yl]phenyl}-3-(1H-indazol-4-yl)-2-pyridin-4-ylpyrazolo[1,5-a]pyrimidine]"
13,0.4,"CN1C[C@@H]2C[C@H]1CN2c1c(F)c(F)c(-c2ccnc3c(-c4cccc5[nH]ncc45)c(-c4ccncc4)nn23)c(F)c1F [Example 174, 3-(1H-indazol-4-yl)-2-pyridin-4-yl-7-{2,3,5,6-tetrafluoro-4-[(1S,4S)-5-methyl-2,5-diazabicyclo[2.2.1]hept-2-yl]phenyl}pyrazolo[1,5-a]pyrimidine]"
14,1,"CC(C)(C)OC(=O)N1C[C@@H]2C[C@H]1CN2c1ccc(-c2ccnc3c(-c4ccc(F)c5[nH]ncc45)c(-c4ccncc4)nn23)c(Cl)c1 [Example 175, tert-butyl (1S,4S)-5-{3-chloro-4-[3-(7-fluoro-1H-indazol-4-yl)-2-pyridin-4-ylpyrazolo[1,5-a]pyrimidin-7-yl]phenyl}-2,5-diazabicyclo[2.2.1]heptane-2-carboxylate]"
15,1,"Fc1ccc(-c2c(-c3ccncc3)nn3c2nccc3[C@H]2CC[C@@H](N3C[C@@H]4C[C@H]3CN4)CC2)c2cn[nH]c12 [Example 176, 7-{cis-4-[(1S,4S)-2,5-diazabicyclo[2.2.1]hept-2-yl]cyclohexyl}-3-(7-fluoro-1H-indazol-4-yl)-2-pyridin-4-ylpyrazolo[1,5-a]pyrimidine]"
16,4,"Fc1ccc(-c2c(-c3ccncc3)nn3c2nccc3[C@H]2CC[C@@H](N3C[C@@H]4C[C@H]3CO4)CC2)c2cn[nH]c12 [Example 177, 3-(7-fluoro-1H-indazol-4-yl)-7-{cis-4-[(1S,4S)-2-oxa-5-azabicyclo[2.2.1]hept-5-yl]cyclohexyl}-2-pyridin-4-ylpyrazolo[1,5-a]pyrimidine]"
17,6.7,"Fc1ccc(-c2c(-c3ccncc3)nn3c2nccc3[C@H]2CC[C@H](N3C[C@@H]4C[C@H]3CO4)CC2)c2cn[nH]c12 [Example 178, 3-(7-fluoro-1H-indazol-4-yl)-7-{trans-4-[(1S,4S)-2-oxa-5-azabicyclo[2.2.1]hept-5-yl]cyclohexyl}-2-pyridin-4-ylpyrazolo[1,5-a]pyrimidine]"
18,< 0.3,"Fc1ccc(-c2c(-c3ccncc3)nn3c2nccc3[C@H]2CC[C@H](N3C[C@@H]4C[C@H]3CN4)CC2)c2cn[nH]c12 [Example 183, 7-{trans-4-[(1S,4S)-2,5-diazabicyclo[2.2.1]hept-2-yl]cyclohexyl}-3-(7-fluoro-1H-indazol-4-yl)-2-pyridin-4-ylpyrazolo[1,5-a]pyrimidine]"
19,< 0.3,"Fc1ccc(-c2c(-c3ccncc3)nn3c(-c4ccc(N5C[C@@H]6C[C@H]5CN6)cc4Cl)ccnc23)c2cn[nH]c12 [Example 184, 7-{2-chloro-4-[(1S,4S)-2,5-diazabicyclo[2.2.1]hept-2-yl]phenyl}-3-(7-fluoro-1H-indazol-4-yl)-2-pyridin-4-ylpyrazolo[1,5-a]pyrimidine]"
20,1.7,"Fc1cc(-c2ccnc3c(-c4cccc5[nH]ncc45)c(-c4ccncc4)nn23)ccc1N1C[C@@H]2C[C@H]1CN2 [Example 185, 7-{4-[(1S,4S)-2,5-diazabicyclo[2.2.1]hept-2-yl]-3-fluorophenyl}-3-(1H-indazol-4-yl)-2-pyridin-4-ylpyrazolo[1,5-a]pyrimidine]"
21,1.1,"FC(F)(F)c1cc(N2C[C@@H]3C[C@H]2CN3)ccc1-c1ccnc2c(-c3cccc4[nH]ncc34)c(-c3ccncc3)nn12 [Example 186, 7-{4-[(1S,4S)-2,5-diazabicyclo[2.2.1]hept-2-yl]-2-(trifluoromethyl)phenyl}-3-(1H-indazol-4-yl)-2-pyridin-4-ylpyrazolo[1,5-a]pyrimidine]"
22,< 0.3,"Brc1cc(N2C[C@@H]3C[C@H]2CN3)ccc1-c1ccnc2c(-c3cccc4[nH]ncc34)c(-c3ccncc3)nn12 [Example 187, 7-{2-bromo-4-[(1S,4S)-2,5-diazabicyclo[2.2.1]hept-2-yl]phenyl}-3-(1H-indazol-4-yl)-2-pyridin-4-ylpyrazolo[1,5-a]pyrimidine]"
23,1.9,"CN1C[C@@H]2C[C@H]1CN2c1ccc(-c2ccnc3c(-c4cccc5[nH]ncc45)c(-c4ccncc4)nn23)cc1F [Example 188, 7-{3-fluoro-4-[(1S,4S)-5-methyl-2,5-diazabicyclo[2.2.1]hept-2-yl]phenyl}-3-(1H-indazol-4-yl)-2-pyridin-4-ylpyrazolo[1,5-a]pyrimidine]"
24,1.4,"CN1C[C@@H]2C[C@H]1CN2c1ccc(-c2ccnc3c(-c4cccc5[nH]ncc45)c(-c4ccncc4)nn23)c(C(F)(F)F)c1 [Example 189, 3-(1H-indazol-4-yl)-7-{4-[(1S,4S)-5-methyl-2,5-diazabicyclo[2.2.1]hept-2-yl]-2-(trifluoromethyl)phenyl}-2-pyridin-4-ylpyrazolo[1,5-a]pyrimidine]"
25,< 0.3,"CN1C[C@@H]2C[C@H]1CN2c1ccc(-c2ccnc3c(-c4cccc5[nH]ncc45)c(-c4ccncc4)nn23)c(Br)c1 [Example 190, 7-{2-bromo-4-[(1S,4S)-5-methyl-2,5-diazabicyclo[2.2.1]hept-2-yl]phenyl}-3-(1H-indazol-4-yl)-2-pyridin-4-ylpyrazolo[1,5-a]pyrimidine]"
26,56.1,"C1=C(c2ccnc3c(-c4cccc5[nH]ncc45)c(-c4ccncc4)nn23)CCC2(C1)OCCO2 [Example 191, 7-(1,4-dioxaspiro[4.5]dec-7-en-8-yl)-3-(1H-indazol-4-yl)-2-pyridin-4-ylpyrazolo[1,5-a]pyrimidine]"
